Data on eleven compounds can be found in US12215095B2, “Compounds for the treatment of respiratory diseases” (Tianli Biotech Pty Ltd, priority 2018, dated 2025).

Marks after values point to notes of the source that are not given here.

One assay has as its target casein kinase 1δ (Homo sapiens (Human), UniProt P48730). In words: Kinase inhibition assay (HotSpot assay, Reaction Biology Corp). Format: biochemical. To be noted: 10 μM ATP, 10-dose IC50 mode, 3-fold serial dilution starting at 10 μM; for IC50: read-out: CK1δ IC50; for pIC50: casein kinase 1δ.
In a further assay the test system is TGF-β-induced IL-11. In words: Human parenchymal fibroblast cell assay: inhibition of TGF-β-induced IL-11 (ELISA). To be noted: primary human parenchymal fibroblasts, 100 pM TGF-β1, 16-24 hours, 4.00 is assigned to compounds that failed to cause 50% or more inhibition at 100 µM; for IC50: Fibroblast, read-out: pIC50 IL-11 suppression (converted). Type of assay: cell-based. On the procedure:
Primary human parenchymal fibroblast cells (pFbs) were cultured from parenchyma of lung resection specimens and from non-transplanted lungs of donors without chronic respiratory disease. pFbs were passaged in Dulbecco's Modified Eagle's Media (DMEM) containing 10% (v/v) heat-inactivated fetal calf serum (FCS), 15 mM HEPES, 0.2% (v/v) sodium bicarbonate, 2 mM L-glutamine, 1% (v/v) non-essential amino acids, 1% (v/v) sodium pyruvate, 2.5 μg/mL amphotericin, 5 IU/mL penicillin and 50 μg/mL streptomycin.
Prior to experimentation, pFb were incubated in serum-free DMEM containing 0.25% bovine serum albumin (BSA) and insulin-transferrin-selenium-containing supplement (Monomed A; CSL, Parkville, Melbourne, Australia). The cells were incubated with small molecular CK1δelta inhibitors (0.1-10 μM) for 30 min prior to 100 pM TGF-β1 (R&D Systems, Minneapolis, MN) and the incubation continued for 16-24 hours prior to harvest of supernatant for detection of immunoreactive IL-11. Stock solutions were made as 10 mM in 100% DMSO and diluted to the required concentration in medium containing 0.1% DMSO (final concentration).
Supernatants were collected for measurement of IL-11 (R&D DuoSet, DY218) by ELISA following the manufacturers' instructions. Generally, capture antibodies were initially diluted to the recommended concentrations using PBS buffer, and then used to coat the wells of 96-well microplates (Greiner, #655061) by adding 50 μL/well and incubated overnight at room temperature. Next day, solutions were discarded and wells were washed 3 times with wash buffer (PBS containing 0.1% (v/v) Tween-20) prior to the addition of 200 μL of blocking solution (PBS containing 1% (v/v) BSA) for 1 hour to block non-specific sites. Plates were then washed 3 times with wash buffer and 50 μL of samples or standards were then added to wells and incubated for 2 hours at room temperature. After the incubation, plates were washed 3 times with wash buffer and 50 μL of detection antibodies were added to wells and incubated for 2 hours at room temperature. Plates were then washed 3 times before adding streptavidin-conjugated horseradish peroxidase (at the recommended concentrations) for 45 min. Plates were then washed 5 times with wash buffer and 100 μL TMB substrate solution (equal parts A and B, BD Biosciences) was added to each well until sufficient signals emerged. The reactions were inactivated by adding 100 μL sulphuric acid (2M H2SO4). The absorbance was measured at 450 nm using the Multiskan Ascent® plate reader. The absorbance of the cytokine standards was fitted to a logistic equation, allowing the concentrations of cytokine in samples to be determined.
pIC50 values (the negative log of the concentration suppressing IL-11 level by 50%) for inhibition of TGF-β-induced IL-11 were interpolated from the linear regression of log concentration small molecule versus IL-11 level (Table 4 and FIG. 2).
In general terms: ELISA stands for enzyme-linked immunosorbent assay.

casein kinase 1δ, sequence (P48730 whole entry): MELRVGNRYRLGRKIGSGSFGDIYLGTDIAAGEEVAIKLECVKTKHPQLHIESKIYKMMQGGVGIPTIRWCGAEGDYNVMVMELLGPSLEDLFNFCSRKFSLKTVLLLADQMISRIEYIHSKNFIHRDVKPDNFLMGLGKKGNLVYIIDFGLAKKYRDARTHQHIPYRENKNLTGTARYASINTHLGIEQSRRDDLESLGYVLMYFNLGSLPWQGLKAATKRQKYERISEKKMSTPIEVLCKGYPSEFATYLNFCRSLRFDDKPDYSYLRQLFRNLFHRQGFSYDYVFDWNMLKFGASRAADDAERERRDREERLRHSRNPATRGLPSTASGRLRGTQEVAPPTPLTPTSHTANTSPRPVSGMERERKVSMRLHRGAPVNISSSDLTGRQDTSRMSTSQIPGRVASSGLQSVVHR

A word on the pIC50: it is the IC50 on a negative log10 scale, so that one unit is a factor of ten. The low end stands for a large IC50, the high end for a small IC50. As for `Fc1ccc(-c2ncn(C3CCCCC3)c2-c2ccnc(NCC3CCCC3)n2)cc1` [ZH2-86, 4-(1-Cyclohexyl-4-(4-fluorophenyl)-1H-imidazol-5-yl)-N-(cyclopentylmethyl)pyrimidin-2-amine], the results for the IC50 on casein kinase 1δ and in the assay on TGF-β-induced IL-11 were 7.16 nM and 1910 nM, respectively. At casein kinase 1δ, this compound showed a pIC50 of 8.15.
Take `Fc1ccc(-c2ncn(C3CCCCC3)c2-c2ccnc(NCc3ccc(-c4ccccc4)cc3)n2)cc1` [ZH2-66, N-([1,1′-Biphenyl]-4-ylmethyl)-4-(1-cyclohexyl-4-(4-fluorophenyl)-1H-imidazol-5-yl)pyrimidin-2-amine]: on casein kinase 1δ, the pIC50 came to 5.86. In addition, in the assay on TGF-β-induced IL-11, the IC50 was more than 100000 nM.
Consider `CC(C)(F)n1cnc(-c2ccc(F)cc2)c1-c1ccnc(NCC2CCC(F)(F)CC2)n1` [ZH2-62], for which, on casein kinase 1δ, the pIC50 worked out at 7.42. The “pIC50 IL-11 suppression” value in the assay on TGF-β-induced IL-11 is reported as < 4.00*.
Turning to `Fc1ccc(-c2ncn(C3CCCCC3)c2-c2ccnc(NCC3CCOCC3)n2)cc1` [ZH2-102, 4-(1-Cyclohexyl-4-(4-fluorophenyl)-1H-imidazol-5-yl)-N-((tetrahydro-2H-pyran-4-yl)methyl)pyrimidin-2-amine], at casein kinase 1δ, the IC50 came to 1.7 nM and the pIC50 is recorded as 8.77. The IC50 with TGF-β-induced IL-11 is 407 nM.
`Fc1ccc(-c2ncn(C3CCCCC3)c2-c2ccnc(NCC3CCC(F)(F)CC3)n2)cc1` [ZH3-74, 4-(1-Cyclohexyl-4-(4-fluorophenyl)-1H-imidazol-5-yl)-N-((4,4-difluorocyclohexyl)methyl)pyrimidin-2-amine]: the IC50 at casein kinase 1δ is 2.97 nM; in the assay with TGF-β-induced IL-11 it was 6760 nM. The same compound returned a pIC50 on casein kinase 1δ of 8.53.
Regarding `Fc1ccc(-c2ncn(C3CCCCC3)c2-c2ccnc(NCc3ccccn3)n2)cc1` [ZH2-130, 4-(1-Cyclohexyl-4-(4-fluorophenyl)-1H-imidazol-5-yl)-N-(pyridin-2-ylmethyl)pyrimidin-2-amine(2-picolyl)], on casein kinase 1δ, the IC50 came out at 1.93 nM and the pIC50 stood at 8.71. Also, in the assay on TGF-β-induced IL-11, the IC50 was 724 nM.
Take `C[C@H](Nc1nccc(-c2c(-c3ccc(F)cc3)ncn2C2CCCCC2)n1)C1CCCCC1` [ZH3-90, (S)-4-(1-Cyclohexyl-4-(4-fluorophenyl)-1H-imidazol-5-yl)-N-(1-cyclohexylethyl)pyrimidin-2-amine]: the pIC50 against casein kinase 1δ was 6.57. In the assay on TGF-β-induced IL-11, the IC50 was more than 100000 nM.
`C[C@@H](Nc1nccc(-c2c(-c3ccc(F)cc3)ncn2C2CCCCC2)n1)C1CCCCC1` [ZH3-94, (R)-4-(1-Cyclohexyl-4-(4-fluorophenyl)-1H-imidazol-5-yl)-N-(1-cyclohexylethyl)pyrimidin-2-amine]: at casein kinase 1δ, the IC50 was 34.4 nM and the pIC50 is 7.46. In addition, in the assay with TGF-β-induced IL-11, the IC50 is 912 nM.
As for `Fc1ccc(-c2ncn(C3CCCCC3)c2-c2ccnc(NCC3CCCCC3)n2)cc1` [ZH2-98, 4-(1-Cyclohexyl-4-(4-fluorophenyl)-1H-imidazol-5-yl)-N-(cyclohexylmethyl)pyrimidin-2-amine], on casein kinase 1δ, the IC50 is 12.6 nM and the pIC50 stood at 7.91. In addition, in the assay on TGF-β-induced IL-11, the IC50 is 1780 nM.
Turning to `FCn1cnc(-c2ccc(F)cc2)c1-c1ccnc(NCCCc2ccccc2)n1` [ZH2-122], on casein kinase 1δ, the IC50 is 5.07 nM.
For `Fc1ccc(-c2ncn(C3CCCCC3)c2-c2ccnc(NCCCc3ccccc3)n2)cc1` [ZH3-98, 4-(1-Cyclohexyl-4-(4-fluorophenyl)-1H-imidazol-5-yl)-N-(3-phenylpropyl)pyrimidin-2-amine], the IC50 on casein kinase 1δ was 2.54 nM; with TGF-β-induced IL-11 it was 2000 nM. The pIC50 at casein kinase 1δ worked out at 8.59.
